Source: article PMC7369796, “The Diverse Piscidin Repertoire of the European Sea Bass (Dicentrarchus labrax): Molecular Characterization and Antimicrobial Activities” (International Journal of Molecular Sciences, 2020)
Like-named read-outs stand apart in the source and are kept apart here. Ends that are not written are not given here.

Experiments:
[1] = test system: Vibro anguillarum (DSM 21597); type: cell-based, V. anguillarum; conditions: DSM 21597, 24 h
Description: (§1) The biological activity of sea bass piscidin mature peptides was studied by determining their antimicrobial properties. Synthetic piscidin peptides were based on the predicted coding sequences and were commercially produced (NZYtech, Lisbon, Portugal) with an additional C-terminal amidation (Table S3). Peptides were incubated in serial dilutions with ten bacterial strains, known to cause severe diseases in aquaculture: Photobacterium damselae subsp. piscicida (DSM 22834), P. damselae subsp. damselae (DSM 7482), Vibro anguillarum (DSM 21597), V. alginolyticus (DSM 2171), Aeromonas salmonicida subsp. salmonicida (DSM 19634), A. hydrophila subsp. hydrophila (DSM 30187), Yersinia ruckeri (DSM 18506), Edwardsiella tarda (DSM 30052), Lactococcus garviae (DSM 20684) and Streptococcus parauberis (DSM 6631). In short, 1 × 10^8 bacteria per milliliter were incubated in optimal growth conditions with the peptide in flat-bottom 96-well plates, in a final volume of 100 µL, and OD was read at 600 nm in a plate reader after 24 h of incubation. Wells with no added peptide were used as controls, and wells without bacteria were used as blanks. The minimal inhibitory concentration (MIC) was determined as the lowest concentration of piscidin that reduced 50% of bacterial growth when compared to the controls. The MICs reported correspond to representative results from two independent experiments.

[2] = test system: P. damselae subsp. damselae (DSM 7482); type: cell-based, Photobacterium damselae subsp. damselae; conditions: DSM 7482, 24 h
Description: as §1

[3] = test system: Trypanosoma brucei brucei bloodstream forms (strain Lister 427); assay: Antiparasitic activity (resazurin reduction, IC50); type: cell-based; conditions: T. brucei brucei bloodstream forms; 72 h, serial dilutions up to 100 µM, 96-well, 200 µL; resazurin reduction (fluorescence 544/590 nm); non-linear regression; means ± SD, two separate experiments
Description: (§2) The anti-protozoal activity of sea bass piscidins was evaluated using two parasites: Trypanosoma brucei brucei bloodstream forms (strain Lister 427) and Leishmania infantum promastigotes (strain MHOM/MA/67/ITMAP-263). Parasites were incubated in optimal growth conditions with serial dilutions of the different peptides in flat-bottom 96-well plates, in a final volume of 200 µL, during 72 h. Cell metabolic activity was measured by resazurin reduction. Briefly, 20 µL of resazurin (50 µM) were added and incubated for 4 h. The fluorescence of resorufin, resulting from resazurin reduction by metabolically active cells, was measured at λex = 544 nm and λem = 590 nm in Synergy 2 (BioTek, Winooski, Vermont, USA). Cultures with no added peptide were used as negative controls and cultures with the reference drugs, namely pentamidine (10 nM) and miltefosine (40 µM) were used as positive controls for T. brucei and L. infantum inhibition assays, respectively. Wells with culture medium were used as blanks. Anti-parasitic effect was evaluated by the determination of IC50 value (concentration required to inhibit growth in 50%) and calculated by non-linear regression analysis using GraphPad Prism version 8.1.1 for Windows (GraphPad Software, San Diego, CA, USA). The IC50 reported correspond to representative results from two independent experiments.

[4] = test system: Leishmania infantum promastigotes (strain MHOM/MA/67/ITMAP-263); type: cell-based; conditions: 72 h
Description: as §2

[5] = test system: Aeromonas salmonicida subsp. salmonicida (DSM 19634); type: cell-based; conditions: DSM 19634, 24 h
Description: as §1

[6] = test system: Streptococcus parauberis (DSM 6631); type: cell-based
Description: as §1

[7] = test system: Photobacterium damselae subsp. piscicida (DSM 22834); type: cell-based; conditions: DSM 22834, 24 h
Description: as §1

[8] = test system: V. alginolyticus (DSM 2171); type: cell-based; conditions: DSM 2171, 24 h
Description: as §1

[9] = test system: Yersinia ruckeri (DSM 18506); type: cell-based; conditions: DSM 18506, 24 h
Description: as §1

[10] = test system: Lactococcus garviae (DSM 20684); type: cell-based; conditions: DSM 20684, 24 h
Description: as §1

FLGRFFRRTQAILRGARQGWRAHKAVSRYRDRYIPETDNNQEQP-NH2 [Piscidin2]
MIC [1]: 146.1 ± 21.4 µM
MIC [2]: 105.8 ± 22.1 µM
IC50 [3]: 1.74 ± 0.13 µM
IC50 [4]: 5.52 ± 0.26 µM
MIC [5]: 67.7 ± 0.2 µM
MIC ([6]; DSM 6631, 24 h): 6.9 ± 2.8 µM
MIC [7]: 9.1 ± 1.7 µM
MIC [8]: 66.2 ± 2.0 µM
MIC [9]: 137.6 ± 3.1 µM

FLGRVKSMWSGVRNGYKAYKYQRNMAKMNKGYGPNWQQGGGQEPPADAQANDQPP-NH2 [Piscidin7]
IC50 [3]: 7.3 ± 0.32 µM
IC50 [4]: 66.77 ± 0.08 µM

FIHHIFRGIINAGKSIGRFITG-NH2 [Piscidin4]
MIC [2]: 81.3 ± 9.5 µM
IC50 [3]: 3.24 ± 0.16 µM
IC50 [4]: 8.34 ± 0.81 µM
MIC ([6]; DSM 6631, 24 h): 1.8 ± 1.8 µM
MIC [10]: 48.8 ± 40.1 µM
MIC [7]: 29.1 ± 12.0 µM

LIGSLFRGAKAIFRGARQGWRAHKAVSRYRAGYVRRPVVYYHRVYP-NH2 [Piscidin5]
MIC [1]: 10.1 ± 2.7 µM
MIC [2]: 14.8 ± 2.0 µM
IC50 [3]: 4.42 ± 0.12 µM
IC50 [4]: 7.24 ± 0.61 µM
MIC [5]: 47.9 ± 6.1 µM
MIC ([6]; DSM 6631, 24 h): 1.3 ± 1.2 µM
MIC [10]: 42.3 ± 16.4 µM
MIC [7]: 3.3 ± 0.1 µM
MIC [8]: 36.9 ± 2.3 µM
MIC [9]: 25.4 ± 1.8 µM

FFHHIFRGIVHVGKTIHRLVTG-NH2 [Piscidin1]
MIC [1]: 16.3 ± 0.6 µM
MIC [2]: 15.0 ± 0.2 µM
IC50 [3]: 3.88 ± 0.11 µM
IC50 [4]: 5.2 ± 0.03 µM
MIC [5]: 64.2 ± 2.1 µM
MIC ([6]; DSM 6631, 24 h): 2.4 ± 0.8 µM
MIC [10]: 33.9 ± 3.8 µM
MIC [7]: 7.4 ± 1.6 µM
MIC [8]: 34.8 ± 0.3 µM
MIC [9]: 48.4 ± 3.8 µM

LFGSLKAWFKGGKQASRDYKYQKDMAKMNKRYGPNWQQGGGQQPPANAQANDQPPADAQANDQPS-NH2 [Piscidin6, synthetic putative mature peptide of European sea bass piscidin 6, 65 aa, MT066195]
IC50 [3]: 56.5 ± 1.61 µM
MIC ([6]; S. parauberis, 1 × 10^8 bacteria/mL, 96-well, 100 µL, 24 h, OD 600 nm, serial dilutions up to 200 µM, MIC = lowest concentration that reduced 50% of bacterial growth vs controls, means ± SD, two separate experiments, N.A. = not active at the highest concentration tested): 87.7 ± 123.0 µM
